Experimental data reported in patent publication US20070238141A1, “Method for measuring kinase activity” (SYSMEX CORPORATION, priority 2006, published 2007).

Assays:
Type in all cases: biochemical, human
[1] = tested on: receptor tyrosine kinase present in a cell membrane of MDA-MB231; experiment: Influence of inhibitor on kinase activity of receptor tyrosine kinase, GST-poly (Glu,Tyr) substrate, Western blotting, sample i; settings: reaction solution containing 100 μM inhibitor, C (no inhibitor) = 100%, FIG. 8
Experimental: (§1) A culturing cell (MDA-MB231) derived from a breast cancer was cultured to 80% confluent (about 10^7 cells) in a 225 cm^2 flask. This cultured cell and 1 ml of a cell treating solution (containing 20 mM HEPES pH7.4, 0.2% PI, 10% glycerol, 200 μM Na3VO4, and 50 mM NaF) were mixed, and a cell membrane was destructed by pressurizing using a pestle to prepare a cell solution. The resulting cell solution was centrifuged, and the supernatant was discarded. A precipitate and a cell membrane solubilizing solution (containing 20 mM HEPES pH7.4, 1% NP40, 0.2% PI, 10% glycerol, 200 μM Na3VO4, and 50 mM NaF) were mixed, a cell membrane was solubilized by pressurizing using a pestle, and this was centrifuged to recover the supernatant. This supernatant was used as a sample for a reaction in the following enzyme reaction. Similarly, a sample for a reaction solution was prepared from MDA-MB468 and SKBr3 which are a cultured cell derived from a breast cancer, respectively. Herein, a sample prepared from MDA-MB231 is designated as a sample for reaction “i”, a sample prepared from MDA-MB468 is designated as a sample for reaction “ii”, and a sample prepared from SKBr3 is designated as a sample for reaction “iii”. All samples for a reaction were prepared so that a concentration of a contained protein became 0.8 mg/ml.
(§2) Each 25μ of samples for a reaction were accommodated in four tubes. […]
(§3) Using these “PD”, “W”, “AG” and “C”, Western blotting was performed according to the same method as that of Example 6. Results are shown by a graph in which a fluorescent intensity of a band of a phosphorylated GST-poly (Glu,Tyr) fused protein detected in a fluorescent photograph of Western blotting was digitalized using an exclusive use analyzing software. […]

[2] = tested on: receptor tyrosine kinase present in a cell membrane of SKBr3; experiment: Influence of inhibitor on kinase activity of receptor tyrosine kinase, GST-poly (Glu,Tyr) substrate, Western blotting, sample iii; settings: reaction solution containing 100 μM inhibitor, C (no inhibitor) = 100%, FIG. 10
Experimental: as §1, §2, §3

[3] = tested on: receptor tyrosine kinase present in a cell membrane of MDA-MB468; experiment: Influence of inhibitor on kinase activity of receptor tyrosine kinase, GST-poly (Glu,Tyr) substrate, Western blotting, sample ii; settings: reaction solution containing 100 μM inhibitor, C (no inhibitor) = 100%, FIG. 9
Experimental: as §1, §2, §3

[4] = tested on: receptor tyrosine kinase present in a cell membrane of SKBr3; experiment: Influence of ligand on kinase activity of receptor tyrosine kinase, GST-poly (Glu,Tyr) substrate, Western blotting; settings: reaction solution containing 100 ng of Heregulin (H) vs no ligand (C); SKBr3 membrane sample; FIG. 11
Experimental: A culturing cell (MDA-MB231) derived from a breast cancer was cultured to 80% confluent (about 10^7 cells) in a 225 cm^2 flask. This cultured cell and 1 ml of a cell treating solution (containing 20 mM HEPES pH7.4, 0.2% PI, 10% glycerol, 200 μM Na3VO4, and 50 mM NaF) were mixed, and a cell membrane was destructed by pressurizing using a pestle to prepare a cell solution. The resulting cell solution was centrifuged, and the supernatant was discarded. A precipitate and a cell membrane solubilizing solution (containing 20 mM HEPES pH7.4, 1% NP40, 0.2% PI, 10% glycerol, 200 μM Na3VO4, and 50 mM NaF) were mixed, a cell membrane was solubilized by pressurizing using a pestle, and this was centrifuged to recover the supernatant. This supernatant was used as a sample for a reaction in the following enzyme reaction. Similarly, a sample for a reaction solution was prepared from MDA-MB468 and SKBr3 which are a cultured cell derived from a breast cancer, respectively. […]
Using these “H” and “C”, Western blotting was performed according to the same method as that of Example 6. And, a fluorescent intensity of a band of a phosphorylated GST-poly (Glu,Tyr) fused protein detected in a fluorescent photograph was digitalized using an exclusive use analyzing software. […]

Compound	fluorescent intensity of band of phosphorylated GST-poly (Glu,Tyr) fused protein compared with C [1]	fluorescent intensity of band of phosphorylated GST-poly (Glu,Tyr) fused protein compared with C [2]	fluorescent intensity of band of phosphorylated GST-poly (Glu,Tyr) fused protein compared with C [3]	fluorescent intensity of band of phosphorylated GST-poly (Glu,Tyr) fused protein compared with C [4]
COc1cc2ncnc(Nc3ccc(OCc4ccccc4)cc3)c2cc1OC [W4557]	not inhibited	reduced	reduced	
Heregulin				higher
CNc1cc2c(Nc3cccc(Br)c3)ncnc2cn1 [PD158780]	not inhibited	reduced	reduced	
COc1cc2ncnc(Nc3cccc(Cl)c3)c2cc1OC [AG1478]	not inhibited	reduced	reduced	
